Reference: patent US6506775B1, “Substituted benzylaminopiperidine compounds” (Pfizer INC, priority 1995, dated 2003)

Legend:
[1] = tested on: [Sar^9, Met(O2)^11]substance P-induced tapping; assay: [Sar9, Met(O2)11]substance P-induced tapping test in gerbils; assay type: in vivo; settings: repetitive hind paw tapping, Examples 3 and 5 compared with the corresponding no halosubstituted compounds
Procedure: The activity of the compounds of this invention against CNS disorders is determined in a [Sar^9, Met(O2)^11]substance P-induced tapping test in gerbils. More specifically, gerbils are lightly anesthetized with ether and the skull surface is exposed. [Sar^9, Met(O2)^11]substance P or vehicle (5 μl) are administered directly into the lateral ventricles via a 25 gauge needle inserted 3.5 mm below lambda. Following injection, gerbils are placed in 2 l beaker individually and monitored for repetitive hind paw tapping. Some compounds prepared in the following Examples were tested in accordance with these testing methods.

Compound | melting point [°C] | activity against CNS disorders [1]
COc1ccc(C(C)(C)C#CC(F)(F)F)cc1CN[C@H]1CCCN[C@H]1c1ccccc1.Cl.Cl | 225 to 227 | 
COc1ccc(C(F)(C(F)(F)F)C(F)(F)F)cc1CN[C@H]1CCCN[C@H]1c1ccccc1.Cl.Cl | 265 to 270 | 
COc1ccc(C(C(F)(F)F)C(F)(F)F)cc1CN[C@H]1CCCN[C@H]1c1ccccc1.Cl.Cl [Example 5, (2S,3S)-2-Phenyl-3-(5-(2,2,2-trifluoro-1-(trifluoromethyl)ethyl)-2-methoxybenzyl)aminopiperidine dihydrochloride] | 290 to 294 | unexpectedly improved activity against CNS disorders

Second part, led by results:

melting point [°C] | Compound | activity against CNS disorders [1]
195 to 203 | Cl.Cl.Fc1ccc(C(F)(F)F)cc1CN[C@H]1CCCN[C@H]1c1ccccc1 | 
190 to 197 | Cl.Cl.FC(F)(F)c1ccc(Oc2ccccc2)c(CN[C@H]2CCCN[C@H]2c2ccccc2)c1 | 
172 to 174 | CC(F)(F)c1ccc(OC(F)(F)F)c(CN[C@H]2CCCN[C@H]2c2ccccc2)c1.Cl.Cl | 
228 to 233 | COc1ccc(C(F)(F)F)cc1CN[C@H]1CCCN[C@H]1c1ccccc1.Cl.Cl [Example 3, (2S,3S)-3-(2-Methoxy-5-(trifluoromethyl)benzyl)amino-2-phenylpiperidine dihydrochloride] | unexpectedly improved activity against CNS disorders
